Experiment [1] has as its target KRAS G12C (Homo sapiens, UniProt P01116, G12C). Put plainly: GDP-GTP exchange assay, KRAS G12C (bodipy-GDP/GppNHp, SOS1). In kind it is biochemical. The settings on record: bodipy-loaded KRAS G12C 2.5 nM, 2 hours pre-incubation, 2 hours exchange with GppNHp and SOS1; read-out: G12C_exchange (KRAS_G12C exchange assay IC50). The procedure: (§1) The inhibitor potency of the exemplified compounds was determined in a fluorescence based guanine nucleotide exchange assay, which measures the exchange of bodipy-GDP (fluorescently labeled GDP) for GppNHp (Non-hydrolyzable GTP analog) to generate the active state of KRAS in the presence of SOS1 (guanine nucleotide exchange factor). Inhibitors were serially diluted in DMSO and a volume of 0.1 μL was transferred to the wells of a black low volume 384-well plate. 5 μL/well volume of bodipy-loaded KRAS G12C diluted to 5 nM in assay buffer (25 mM Hepes pH 7.5, 50 mM NaCl, 10 mM MgCl2 and 0.01% Brij-35) was added to the plate and pre-incubated with inhibitor for 2 hours at ambient temperature. Appropriate controls (enzyme with no inhibitor or with a G12C inhibitor (AMG-510)) were included on the plate. The exchange was initiated by the addition of a 5 μL/well volume containing 1 mM GppNHp and 300 nM SOS1 in assay buffer. The 10 μL/well reaction concentration of the bodipy-loaded KRAS G12C, GppNHp, and SOS1 were 2.5 nM, 500 uM, and 150 nM, respectively. The reaction plates were incubated at ambient temperature for 2 hours, a time estimated for complete GDP-GTP exchange in the absence of inhibitor. For the KRAS G12D and G12V mutants, similar guanine nucleotide exchange assays were used with 2.5 nM as final concentration for the bodipy loaded KRAS proteins and with 4 hours and 3 hours incubation after adding GppNHp-SOS1 mixture for G12D and G12V respectively. A cyclic peptide described to selectively bind G12D mutant (Sakamoto et al., BBRC 484.3 (2017), 605-611) or internal compounds with confirmed binding were used as positive controls in the assay plates. Fluorescence intensities were measured on a PheraStar plate reader instrument (BMG Labtech) with excitation at 485 nm and emission at 520 nm.
Either GraphPad prism or XLfit was used to analyze the data. The IC50 values were derived by fitting the data to a four parameter logistic equation producing a sigmoidal dose-response curve with a variable Hill coefficient. Prism equation: Y=Bottom+(Top−Bottom)/(1+10^((Log IC50−X)*Hill slope)); XLfit equation: Y=(A+((B−A)/(1+((X/C)^D)))) where X is the logarithm of inhibitor concentration and Y is the response.

The test system of experiment [2] is MIA PaCa-2 (KRAS G12C) cells. The experiment can be described thus: Cellular pERK HTRF assay, KRAS_G12C pERK. In kind it is cell-based. The settings on record: Homo sapiens, 4 hours incubation, HTRF phospho-ERK 1/2, read-out: G12C_pERK (KRAS_G12C pERK assay IC50). The procedure:
MIA PaCa-2 (KRAS G12C; ATCC® CRL-1420), A427 (KRAS G12D; ATCC® HTB53), HPAF-II (KRAS G12D; ATCC® CRL-1997) and NCI-H838 (KRAS WT; ATCC® CRL-5844) cells are purchased from ATCC and maintained in RPMI 1640 media supplemented with 10% FBS (Gibco/Life Technologies). The cells are plated at 5000 cells per well (8 uL) into Greiner 384-well low volume, flat-bottom, tissue culture treated white plates and incubated overnight at 37° C., 5% CO2. The next morning, test compound stock solutions are diluted in media at 3× the final concentration, and 4 uL are added to the cells. The plate is mixed by gentle rotation for 30 seconds (250 rpm) at room temperature. The cells are incubated with the KRAS G12C and G12D compounds for 4 hours or 2 hours respectively at 37° C., 5% CO2.
4 uL of 4× lysis buffer with blocking reagent (1:25) (Cisbio) are added to each well and plates are rotated gently (300 rpm) for 30 minutes at room temperature. 4 uL per well of Cisbio anti Phospho-ERK 1/2 d2 is mixed with anti Phospho-ERK 1/2 Cryptate (1:1) are added to each well, mixed by rotation and incubated overnight in the dark at room temperature. Plates are read on the Pherastar plate reader at 665 nm and 620 nm wavelengths. IC50 determination is performed by fitting the curve of inhibitor percent inhibition versus the log of the inhibitor concentration using the GraphPad Prism 7 software.
In general terms: TR-FRET usually uses a lanthanide donor and a delayed reading to cut background.

For experiment [3], the target named is KRAS G12D (Homo sapiens, UniProt P01116, G12D). Put plainly: GDP-GTP exchange assay, KRAS G12D (bodipy-GDP/GppNHp, SOS1). In kind it is biochemical. The settings on record: bodipy-loaded KRAS G12D 2.5 nM, 4 hours incubation after GppNHp-SOS1; read-out: G12D_exchange (KRAS_G12D exchange assay IC50). The procedure: as §1, with “For the KRAS G12D and G12V mutants, similar guanine nucleotide exchange assays were used with 2.5 nM as final concentration for the bodipy loaded KRAS proteins and with 4 hours and 3 hours incubation after adding GppNHp-SOS1 mixture for G12D and G12V respectively. A cyclic peptide described to selectively bind G12D mutant (Sakamoto et al., BBRC 484.3 (2017), 605-611) or internal compounds with confirmed binding were used as positive controls in the assay plates.” left out, “nm. […]” for “nm.”
Sequence of KRAS G12D (P01116 1-188 isoform P01116-2 G12D): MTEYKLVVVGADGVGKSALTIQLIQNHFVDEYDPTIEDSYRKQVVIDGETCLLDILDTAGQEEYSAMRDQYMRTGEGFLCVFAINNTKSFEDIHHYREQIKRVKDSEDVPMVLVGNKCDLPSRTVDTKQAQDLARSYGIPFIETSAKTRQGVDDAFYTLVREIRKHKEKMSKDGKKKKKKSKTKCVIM

pIC50: −log10 of the molar value.

Sequence of KRAS G12C (P01116 1-188 isoform P01116-2 G12C): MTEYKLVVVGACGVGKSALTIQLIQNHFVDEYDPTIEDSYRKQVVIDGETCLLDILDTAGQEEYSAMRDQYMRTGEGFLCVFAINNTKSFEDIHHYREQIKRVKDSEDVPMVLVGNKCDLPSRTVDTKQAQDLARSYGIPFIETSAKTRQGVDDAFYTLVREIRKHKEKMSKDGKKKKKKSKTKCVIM

For the molecule `C=CC(=O)N1CCC(n2cnc3c(-c4cccnc4C)nc4c(=O)n(-c5cccc6ccccc56)c(C(F)(F)F)cc4c32)C[C@H]1CC#N` (stereo partly drawn) [Example 7, 2-((2S)-1-acryloyl-4-(4-(2-methylpyridin-3-yl)-7-(naphthalen-1-yl)-6-oxo-8-(trifluoromethyl)-6,7-dihydro-1H-imidazo[4,5-c][1,7]naphthyridin-1-yl)piperidin-2-yl)acetonitrile], the pIC50 in experiment [1] and in experiment [2] was at least 7.00 in each case.

Regarding `C=CC(=O)N1CC[C@H](n2cnc3c(N4CC(N(C)C)C4)nc4c(=O)n(-c5cc(O)cc6ccccc56)ccc4c32)C[C@H]1CC#N` [Example 1, 2-((2S,4S)-1-acryloyl-4-(4-(3-(dimethylamino)azetidin-1-yl)-7-(3-hydroxynaphthalen-1-yl)-6-oxo-6,7-dihydro-1H-imidazo[4,5-c][1,7]naphthyridin-1-yl)piperidin-2-yl)acetonitrile], the pIC50 in experiment [1] was at least 7.00; in experiment [2], 5.30 to 6.00.

As for `CC#CC(=O)N1CC[C@H](n2cnc3c(O[C@@H](C)[C@@H]4CCCN4C)nc4c(=O)n(-c5cccc(Cl)c5C)c(C(F)(F)F)cc4c32)C[C@H]1CC#N` [Example 9, 2-((2S,4S)-1-(but-2-ynoyl)-4-(7-(3-chloro-2-methylphenyl)-4-((S)-1-((S)-1-methylpyrrolidin-2-yl)ethoxy)-6-oxo-8-(trifluoromethyl)-6,7-dihydro-1H-imidazo[4,5-c][1,7]naphthyridin-1-yl)piperidin-2-yl)acetonitrile], the pIC50 in experiment [1] and in experiment [2] was at least 7.00 in each case.

With `CNCCc1nc2c(N3CC(N(C)C)C3)nc3c(=O)n(-c4cc(O)cc5ccccc45)ccc3c2n1[C@H]1[C@H]2CN[C@@H]1C2` (racemic) [Example 3, 1-((1R,4R,5S)-2-azabicyclo[2.1.1]hexan-5-yl)-4-(3-(dimethylamino)azetidin-1-yl)-7-(3-hydroxynaphthalen-1-yl)-2-(2-(methylamino)ethyl)-1,7-dihydro-6H-imidazo[4,5-c][1,7]naphthyridin-6-one], the pIC50 in experiment [3] is 6.00 to 7.00.

On to `C=C(F)C(=O)N1CC[C@H](n2cnc3c(O[C@@H](C)[C@@H]4CCCN4C)nc4c(=O)n(-c5cccc(Cl)c5C)c(C(F)(F)F)cc4c32)C[C@H]1CC#N` [Example 10, 2-((2S,4S)-4-(7-(3-chloro-2-methylphenyl)-4-((S)-1-((S)-1-methylpyrrolidin-2-yl)ethoxy)-6-oxo-8-(trifluoromethyl)-6,7-dihydro-1H-imidazo[4,5-c][1,7]naphthyridin-1-yl)-1-(2-fluoroacryloyl)piperidin-2-yl)acetonitrile], for which the pIC50 in experiment [1] is at least 7.00; in experiment [2], 6.00 to 7.00.

For the molecule `C=CC(=O)N1CC[C@H](n2cnc3c(N4CC(N(C)C)C4)nc4c(c32)CCN(c2cc(O)cc3ccccc23)C4)C[C@H]1CC#N` [Example 5, 2-((2S,4S)-1-acryloyl-4-(4-(3-(dimethylamino)azetidin-1-yl)-7-(3-hydroxynaphthalen-1-yl)-6,7,8,9-tetrahydro-1H-imidazo[4,5-c][1,7]naphthyridin-1-yl)piperidin-2-yl)acetonitrile], the values for the pIC50 in experiment [1] and in experiment [2] were at least 7.00 and 5.30 to 6.00, respectively.

Regarding `C=CC(=O)N1CC[C@H](n2cnc3c(N4CC(N(C)C)C4)nc4c(=O)n(-c5cccc6ccccc56)c(C(F)(F)F)cc4c32)C[C@H]1CC#N` [Example 6, 2-((2S,4S)-1-acryloyl-4-(4-(3-(dimethylamino)azetidin-1-yl)-7-(naphthalen-1-yl)-6-oxo-8-(trifluoromethyl)-6,7-dihydro-1H-imidazo[4,5-c][1,7]naphthyridin-1-yl)piperidin-2-yl)acetonitrile], the pIC50 in experiment [1] and in experiment [2] was at least 7.00 each time.

`CC#CC(=O)N1CC[C@H](n2cnc3c(N4CC(N(C)C)C4)nc4c(=O)n(-c5cc(O)cc6ccccc56)ccc4c32)C[C@H]1CC#N` [Example 2, 2-((2S,4S)-1-(but-2-ynoyl)-4-(4-(3-(dimethylamino)azetidin-1-yl)-7-(3-hydroxynaphthalen-1-yl)-6-oxo-6,7-dihydro-1H-imidazo[4,5-c][1,7]naphthyridin-1-yl)piperidin-2-yl)acetonitrile]: the pIC50 in experiment [1] was at least 7.00; in experiment [2], 5.30 to 6.00.

As for `Cc1c(Cl)cccc1-n1c(C(F)(F)F)cc2c(nc(N3CC(C)(N(C)C)C3)c3nnn([C@H]4CCN(C(=O)/C=C/CF)[C@H](CC#N)C4)c32)c1=O` [Example 12, 2-((2S,4S)-4-(7-(3-chloro-2-methylphenyl)-4-(3-(dimethylamino)-3-methylazetidin-1-yl)-6-oxo-8-(trifluoromethyl)-6,7-dihydro-1H-[1,2,3]triazolo[4,5-c][1,7]naphthyridin-1-yl)-1-((E)-4-fluorobut-2-enoyl)piperidin-2-yl)acetonitrile], the pIC50 in experiment [1] and in experiment [2] was at least 7.00 throughout.

As for `C=CC(=O)N1CC[C@H](n2cnc3c(N4CC(N(C)C)C4)nc4c(c32)CCN(c2cccc3ccccc23)C4)C[C@H]1CC#N` [Example 4, 2-((2S,4S)-1-acryloyl-4-(4-(3-(dimethylamino)azetidin-1-yl)-7-(naphthalen-1-yl)-6,7,8,9-tetrahydro-1H-imidazo[4,5-c][1,7]naphthyridin-1-yl)piperidin-2-yl)acetonitrile], in experiment [1], the pIC50 is 6.00 to 7.00.

As to `C=CC(=O)N1CC[C@H](n2nnc3c(N4CC(C)(N(C)C)C4)nc4c(=O)n(-c5cccc(Cl)c5C)c(C(F)(F)F)cc4c32)C[C@H]1CC#N` [Example 11, 2-((2S,4S)-1-acryloyl-4-(7-(3-chloro-2-methylphenyl)-4-(3-(dimethylamino)-3-methylazetidin-1-yl)-6-oxo-8-(trifluoromethyl)-6,7-dihydro-1H-[1,2,3]triazolo[4,5-c][1,7]naphthyridin-1-yl)piperidin-2-yl)acetonitrile], the pIC50 in experiment [1] and in experiment [2] was at least 7.00 throughout.

As to `C=CC(=O)N1CC[C@H](n2cnc3c(O[C@@H](C)[C@@H]4CCCN4C)nc4c(=O)n(-c5cccc(Cl)c5C)c(C(F)(F)F)cc4c32)C[C@H]1CC#N` [Example 8, 2-((2S,4S)-1-acryloyl-4-(7-(3-chloro-2-methylphenyl)-4-((S)-1-((S)-1-methylpyrrolidin-2-yl)ethoxy)-6-oxo-8-(trifluoromethyl)-6,7-dihydro-1H-imidazo[4,5-c][1,7]naphthyridin-1-yl)piperidin-2-yl)acetonitrile], the pIC50 in experiment [1] and in experiment [2] was at least 7.00 each time.

One may read the pIC50 as the negative decadic logarithm of the IC50, by convention in mol/L.

The values are drawn from US12077539B2, “Imidazole and triazole KRAS inhibitors” (Incyte Corporation, priority 2021, dated 2024).
